From US4110327A, “2,3 Diketo-piperazinocarbonylamino alkanoic acids and derivatives” (Toyama Chemical Co., Ltd., priority 1974, dated 1978)
Values after ≈ are worked out from the molar mass of the structure shown. Values belong to the molecule of their own block, whether it stands above or below them.

Experiments:
Assay type in all cases: cell-based
Proteus vulgaris 3027 = experiment: MIC against standard strain, plate method; conditions: Proteus vulgaris 3027, standard strain; unit assumed
Procedure: (§1) The minimum inhibitory concentrations (MIC) was determined by the plate method disclosed in "Chemotherapy" (Japan), Vol. 16, (1968), pages 98 - 99. The culture medium used was a Heart infusion agar (pH 7.4). The number of the cells per plate used in the inoculum as 10^4 (10^6 cells/ml).

Escherichia coli NIHJ = experiment: MIC against standard strain, plate method; conditions: unit assumed
Procedure: as §1

[1] = system: Staphylococcus aureus 209p; experiment: MIC against standard strain, plate method; conditions: unit assumed
Procedure: as §1

Klebsiella pneumoniae [2] = experiment: MIC against standard strain, plate method; conditions: unit assumed
Procedure: as §1

[3] = system: Pseudomonas aeruginosa I.F.O.; experiment: MIC against standard strain, plate method; conditions: unit assumed
Procedure: as §1

Pseudomonas aeruginosa = experiment: MIC against clinical isolates; conditions: unit assumed
Klebsiella pneumoniae [4] = experiment: MIC against clinical isolates; conditions: unit assumed
Escherichia coli = experiment: MIC against clinical isolates; conditions: unit assumed
Staphylococcus aureus = experiment: MIC against clinical isolates; conditions: unit assumed

- MIC (Proteus vulgaris 3027): 12.5 µg/mL (≈ 21.2 µM)
- MIC (Escherichia coli NIHJ): < 0.79 µg/mL
- MIC [1]: 6.25 µg/mL (≈ 10.6 µM)
- MIC (Klebsiella pneumoniae [2]): 3.13 µg/mL (≈ 5.31 µM)
- MIC [3]: 100 µg/mL (≈ 170 µM)
SMILES: CCN1CCN(C(=S)NC(C(=O)NC2C(=O)N3C(C(=O)O)=C(COC(C)=O)CSC23)c2ccccc2)C(=O)C1=O (centres unmarked) [compound 67]

SMILES: C=CCN1CCN(C(=O)N[C@@H](C(=O)N[C@@H]2C(=O)N3[C@@H]2SC(C)(C)[C@@H]3C(=O)O)c2ccccc2)C(=O)C1=O (single isomer, unassigned) [compound 42]
- MIC (Proteus vulgaris 3027): < 1.57 µg/mL
- MIC (Escherichia coli NIHJ): < 1.57 µg/mL
- MIC [1]: 1.57 µg/mL (≈ 2.96 µM)
- MIC (Klebsiella pneumoniae [2]): 6.25 µg/mL (≈ 11.8 µM)
- MIC [3]: 12.5 µg/mL (≈ 23.6 µM)

- MIC (Proteus vulgaris 3027): < 1.57 µg/mL
- MIC (Escherichia coli NIHJ): < 1.57 µg/mL
- MIC [1]: < 1.57 µg/mL
- MIC (Klebsiella pneumoniae [2]): 6.25 µg/mL (≈ 10.9 µM)
- MIC [3]: 25 µg/mL (≈ 43.4 µM)
SMILES: CC(=O)OCCN1CCN(C(=O)N[C@@H](C(=O)N[C@@H]2C(=O)N3[C@@H]2SC(C)(C)[C@@H]3C(=O)O)c2ccccc2)C(=O)C1=O (single isomer, unassigned) [compound 41]

SMILES: CCCCCCN1CCN(C(=O)N[C@@H](C(=O)N[C@@H]2C(=O)N3[C@@H]2SC(C)(C)[C@@H]3C(=O)O)c2ccccc2)CC1=O [compound 29]
- MIC (Proteus vulgaris 3027): 3.13 µg/mL (≈ 5.59 µM)
- MIC (Escherichia coli NIHJ): < 1.57 µg/mL
- MIC [1]: 3.13 µg/mL (≈ 5.59 µM)
- MIC (Klebsiella pneumoniae [2]): 3.13 µg/mL (≈ 5.59 µM)
- MIC [3]: 12.5 µg/mL (≈ 22.3 µM)

SMILES: CC1(C)S[C@@H]2[C@H](NC(=O)[C@H](NC(=O)N3CCN(Cc4ccccc4)C(=O)C3)c3ccccc3)C(=O)N2[C@H]1C(=O)O [compound 23]
- MIC (Proteus vulgaris 3027): 3.13 µg/mL (≈ 5.53 µM)
- MIC (Escherichia coli NIHJ): < 1.57 µg/mL
- MIC [1]: < 1.57 µg/mL
- MIC (Klebsiella pneumoniae [2]): 6.25 µg/mL (≈ 11 µM)
- MIC [3]: 25 µg/mL (≈ 44.2 µM)

SMILES: C=CC(C)N1CCN(C(=O)N[C@@H](C(=O)N[C@@H]2C(=O)N3[C@@H]2SC(C)(C)[C@@H]3C(=O)O)c2ccccc2)CC1=O (single isomer, unassigned) [compound 26]
- MIC (Proteus vulgaris 3027): 12.5 µg/mL (≈ 23.6 µM)
- MIC (Escherichia coli NIHJ): < 1.57 µg/mL
- MIC [1]: < 1.57 µg/mL
- MIC (Klebsiella pneumoniae [2]): 25 µg/mL (≈ 47.2 µM)
- MIC [3]: 25 µg/mL (≈ 47.2 µM)

SMILES: CC(C)N1CCN(C(=O)N[C@@H](C(=O)N[C@@H]2C(=O)N3[C@@H]2SC(C)(C)[C@@H]3C(=O)O)c2ccccc2)CC1=O [compound 20]
- MIC (Proteus vulgaris 3027): 3.13 µg/mL (≈ 6.05 µM)
- MIC (Escherichia coli NIHJ): < 1.57 µg/mL
- MIC [1]: 3.13 µg/mL (≈ 6.05 µM)
- MIC (Klebsiella pneumoniae [2]): 25 µg/mL (≈ 48.3 µM)
- MIC [3]: 12.5 µg/mL (≈ 24.1 µM)

SMILES: CC1(C)S[C@@H]2[C@H](NC(=O)[C@H](NC(=O)N3CCN(C(=O)C(Cl)Cl)CC3=O)c3ccccc3)C(=O)N2[C@H]1C(=O)O [compound 2]
- MIC (Proteus vulgaris 3027): 6.25 µg/mL (≈ 10.7 µM)
- MIC (Escherichia coli NIHJ): < 1.57 µg/mL
- MIC [1]: < 1.57 µg/mL
- MIC (Klebsiella pneumoniae [2]): 12.5 µg/mL (≈ 21.3 µM)
- MIC [3]: 50 µg/mL (≈ 85.3 µM)

- MIC (Proteus vulgaris 3027): 3.13 µg/mL (≈ 5.26 µM)
- MIC (Escherichia coli NIHJ): < 1.57 µg/mL
- MIC [1]: < 1.57 µg/mL
- MIC (Klebsiella pneumoniae [2]): 6.25 µg/mL (≈ 10.5 µM)
- MIC [3]: 50 µg/mL (≈ 84.1 µM)
SMILES: CC1(C)S[C@@H]2[C@H](NC(=O)[C@H](NC(=O)N3CCN(C(=O)Nc4ccccc4)C(=O)C3)c3ccccc3)C(=O)N2[C@H]1C(=O)O [compound 33]

SMILES: CC1(C)S[C@@H]2[C@H](NC(=O)[C@H](NC(=O)N3CCN(C(=O)C4CCCCC4)CC3=O)c3ccccc3)C(=O)N2[C@H]1C(=O)O [compound 3]
- MIC (Proteus vulgaris 3027): 3.13 µg/mL (≈ 5.34 µM)
- MIC (Escherichia coli NIHJ): < 1.57 µg/mL
- MIC [1]: < 1.57 µg/mL
- MIC (Klebsiella pneumoniae [2]): 3.13 µg/mL (≈ 5.34 µM)
- MIC [3]: 100 µg/mL (≈ 171 µM)

SMILES: O=C(Cc1cccs1)N[C@@H]1C(=O)N2C(C(=O)[O-])=C(C[n+]3ccccc3)CS[C@H]12 [Cephalorizine, reference compound]
- MIC (Pseudomonas aeruginosa; clinical isolate GN 82): > 200 µg/mL
- MIC (Pseudomonas aeruginosa; clinical isolate GN 163): > 200 µg/mL
- MIC (Pseudomonas aeruginosa; clinical isolate GN 221): > 200 µg/mL
- MIC (Pseudomonas aeruginosa; clinical isolate GN 244): > 200 µg/mL
- MIC (Pseudomonas aeruginosa; clinical isolate GN 376): > 200 µg/mL
- MIC (Pseudomonas aeruginosa; clinical isolate GN 383): > 200 µg/mL
- MIC (Pseudomonas aeruginosa; clinical isolate GN 1035): > 200 µg/mL
- MIC (Pseudomonas aeruginosa; clinical isolate GN 1091): > 200 µg/mL
- MIC (Pseudomonas aeruginosa; clinical isolate GN 2565): > 200 µg/mL
- MIC (Pseudomonas aeruginosa; clinical isolate GN 2987): > 200 µg/mL
- MIC (Pseudomonas aeruginosa; clinical isolate S-1): > 200 µg/mL
- MIC (Pseudomonas aeruginosa; clinical isolate S-2): > 200 µg/mL
- MIC (Pseudomonas aeruginosa; clinical isolate S-3): > 200 µg/mL
- MIC (Pseudomonas aeruginosa; clinical isolate S-4): > 200 µg/mL
- MIC (Klebsiella pneumoniae [4]; clinical isolate GN 917): 3.13 µg/mL (≈ 7.53 µM)
- MIC (Klebsiella pneumoniae [4]; clinical isolate GN 4081): 12.5 µg/mL (≈ 30.1 µM)
- MIC (Klebsiella pneumoniae [4]; clinical isolate GN 4117): 12.5 µg/mL (≈ 30.1 µM)
- MIC (Escherichia coli; clinical isolate GN 3435): 3.13 µg/mL (≈ 7.53 µM)
- MIC (Escherichia coli; clinical isolate GN 3452): 3.13 µg/mL (≈ 7.53 µM)
- MIC (Escherichia coli; clinical isolate GN 3465): 50 µg/mL (≈ 120 µM)
- MIC (Escherichia coli; clinical isolate GN 3481): 3.13 µg/mL (≈ 7.53 µM)
- MIC (Escherichia coli; clinical isolate GN 3611): 100 µg/mL (≈ 241 µM)
- MIC (Escherichia coli; clinical isolate K-1): 3.13 µg/mL (≈ 7.53 µM)
- MIC (Escherichia coli; clinical isolate K-2): 3.13 µg/mL (≈ 7.53 µM)
- MIC (Escherichia coli; clinical isolate K-3): 200 µg/mL (≈ 481 µM)
- MIC (Escherichia coli; clinical isolate K-4): 6.25 µg/mL (≈ 15 µM)
- MIC (Staphylococcus aureus; clinical isolate F-1): < 0.4 µg/mL
- MIC (Staphylococcus aureus; clinical isolate F-2): < 0.4 µg/mL
- MIC (Staphylococcus aureus; clinical isolate F-3): < 0.4 µg/mL
- MIC (Staphylococcus aureus; clinical isolate F-4): < 0.4 µg/mL
- MIC (Staphylococcus aureus; clinical isolate F-5): 0.78 µg/mL (≈ 1.88 µM)
- MIC (Staphylococcus aureus; clinical isolate MS 8588): < 0.4 µg/mL
- MIC (Staphylococcus aureus; clinical isolate MS 8596): < 0.4 µg/mL
- MIC (Staphylococcus aureus; clinical isolate MS 8619): < 0.4 µg/mL
- MIC (Staphylococcus aureus; clinical isolate MS 8684): < 0.4 µg/mL
- MIC (Staphylococcus aureus; clinical isolate MS 8713): < 0.4 µg/mL

SMILES: CCCCCCCCCCCCN1CCN(C(=O)N[C@@H](C(=O)N[C@@H]2C(=O)N3[C@@H]2SC(C)(C)[C@@H]3C(=O)O)c2ccccc2)CC1=O [compound 31]
- MIC (Proteus vulgaris 3027): < 1.57 µg/mL
- MIC (Escherichia coli NIHJ): < 1.57 µg/mL
- MIC [1]: < 1.57 µg/mL
- MIC (Klebsiella pneumoniae [2]): 6.25 µg/mL (≈ 9.71 µM)
- MIC [3]: 12.5 µg/mL (≈ 19.4 µM)

SMILES: O=C(Cc1cccs1)N[C@@H]1C(=O)N2C(C(=O)[O-])=C(C[n+]3ccccc3)CS[C@H]12 [Cephaloridine, reference compound]
- MIC (Escherichia coli NIHJ): > 3.13 µg/mL
- MIC [1]: < 1.57 µg/mL
- MIC (Klebsiella pneumoniae [2]): 200 µg/mL (≈ 481 µM)
- MIC [3]: 200 µg/mL (≈ 481 µM)

SMILES: CC1(C)S[C@@H]2[C@H](NC(=O)[C@H](NC(=O)N3CCN(C(=O)c4ccc(Cl)cc4)CC3=O)c3ccccc3)C(=O)N2[C@H]1C(=O)O [compound 8]
- MIC (Escherichia coli NIHJ): < 1.57 µg/mL
- MIC [1]: < 1.57 µg/mL
- MIC (Klebsiella pneumoniae [2]): 6.25 µg/mL (≈ 10.2 µM)
